Experiments:
guinea pig left atria = assay: Positive inotropic effect in guinea pig left atria; settings: Cavia porcellus; for EC50: left atria paced at 2 Hz, Krebs bicarbonate, 37°, cumulative addition to maximum 10^-4, read-out: EC50 = concentration that increases DT (developed tension) by 50% above the control DT; for Emax: relative to Bay K8644, expressed in percent, read-out: Intrinsic Activity: ratio of the maximum effect of the test compound to that of Bay K8644
Method: Guinea pigs are killed by cervical dislocation. The left atria are removed and mounted at 1 gm resting tension in tissue baths containing oxygenated Krebs bicarbonate solution which is kept at 37°. The left atria are electrically paced at 2 Hz with square wave pulses of 1 msec duration. The voltage is set at 1.5×threshold level.
After a one hour equilibration period, control values for developed tension (DT, gm) are recorded. Test compounds are then added to the baths, in a cumulative manner to a maximum concentration of 10^-4, to obtain a concentration-response curve. Treatment values of DT are obtained after the drug effect has reached a plateau and the exposure time for each concentration is 5-8 minutes. Percent change of the treatment value from the control value is calculated at each concentration of the test compound.
^a EC50 (M) = concentration that increases DT by 50% above the
^b Intrinsic Activity is a ratio of the maximum effect of the test
compound to that of Bay K8644 and expressed in percent.

[1] = test system: influx of calcium ions into cells; settings: background statement; cited from earlier work
[2] = target: T1, Ca^2+ channel (rat cardiac microsomes) (Rattus norvegicus, UniProt P22002); assay: [3H]-Nitrendipine binding assay (affinity for calcium channels); settings: 0.5 nM [3H]-nitrendipine, Tris buffer, 60 minutes at 25°
T1 construct: The reaction mixture contained rat cardiac microsomes; from tissue; host or cells: rat heart (cardiac microsomes)
T1 sequence (P22002 whole entry, other chains not shown): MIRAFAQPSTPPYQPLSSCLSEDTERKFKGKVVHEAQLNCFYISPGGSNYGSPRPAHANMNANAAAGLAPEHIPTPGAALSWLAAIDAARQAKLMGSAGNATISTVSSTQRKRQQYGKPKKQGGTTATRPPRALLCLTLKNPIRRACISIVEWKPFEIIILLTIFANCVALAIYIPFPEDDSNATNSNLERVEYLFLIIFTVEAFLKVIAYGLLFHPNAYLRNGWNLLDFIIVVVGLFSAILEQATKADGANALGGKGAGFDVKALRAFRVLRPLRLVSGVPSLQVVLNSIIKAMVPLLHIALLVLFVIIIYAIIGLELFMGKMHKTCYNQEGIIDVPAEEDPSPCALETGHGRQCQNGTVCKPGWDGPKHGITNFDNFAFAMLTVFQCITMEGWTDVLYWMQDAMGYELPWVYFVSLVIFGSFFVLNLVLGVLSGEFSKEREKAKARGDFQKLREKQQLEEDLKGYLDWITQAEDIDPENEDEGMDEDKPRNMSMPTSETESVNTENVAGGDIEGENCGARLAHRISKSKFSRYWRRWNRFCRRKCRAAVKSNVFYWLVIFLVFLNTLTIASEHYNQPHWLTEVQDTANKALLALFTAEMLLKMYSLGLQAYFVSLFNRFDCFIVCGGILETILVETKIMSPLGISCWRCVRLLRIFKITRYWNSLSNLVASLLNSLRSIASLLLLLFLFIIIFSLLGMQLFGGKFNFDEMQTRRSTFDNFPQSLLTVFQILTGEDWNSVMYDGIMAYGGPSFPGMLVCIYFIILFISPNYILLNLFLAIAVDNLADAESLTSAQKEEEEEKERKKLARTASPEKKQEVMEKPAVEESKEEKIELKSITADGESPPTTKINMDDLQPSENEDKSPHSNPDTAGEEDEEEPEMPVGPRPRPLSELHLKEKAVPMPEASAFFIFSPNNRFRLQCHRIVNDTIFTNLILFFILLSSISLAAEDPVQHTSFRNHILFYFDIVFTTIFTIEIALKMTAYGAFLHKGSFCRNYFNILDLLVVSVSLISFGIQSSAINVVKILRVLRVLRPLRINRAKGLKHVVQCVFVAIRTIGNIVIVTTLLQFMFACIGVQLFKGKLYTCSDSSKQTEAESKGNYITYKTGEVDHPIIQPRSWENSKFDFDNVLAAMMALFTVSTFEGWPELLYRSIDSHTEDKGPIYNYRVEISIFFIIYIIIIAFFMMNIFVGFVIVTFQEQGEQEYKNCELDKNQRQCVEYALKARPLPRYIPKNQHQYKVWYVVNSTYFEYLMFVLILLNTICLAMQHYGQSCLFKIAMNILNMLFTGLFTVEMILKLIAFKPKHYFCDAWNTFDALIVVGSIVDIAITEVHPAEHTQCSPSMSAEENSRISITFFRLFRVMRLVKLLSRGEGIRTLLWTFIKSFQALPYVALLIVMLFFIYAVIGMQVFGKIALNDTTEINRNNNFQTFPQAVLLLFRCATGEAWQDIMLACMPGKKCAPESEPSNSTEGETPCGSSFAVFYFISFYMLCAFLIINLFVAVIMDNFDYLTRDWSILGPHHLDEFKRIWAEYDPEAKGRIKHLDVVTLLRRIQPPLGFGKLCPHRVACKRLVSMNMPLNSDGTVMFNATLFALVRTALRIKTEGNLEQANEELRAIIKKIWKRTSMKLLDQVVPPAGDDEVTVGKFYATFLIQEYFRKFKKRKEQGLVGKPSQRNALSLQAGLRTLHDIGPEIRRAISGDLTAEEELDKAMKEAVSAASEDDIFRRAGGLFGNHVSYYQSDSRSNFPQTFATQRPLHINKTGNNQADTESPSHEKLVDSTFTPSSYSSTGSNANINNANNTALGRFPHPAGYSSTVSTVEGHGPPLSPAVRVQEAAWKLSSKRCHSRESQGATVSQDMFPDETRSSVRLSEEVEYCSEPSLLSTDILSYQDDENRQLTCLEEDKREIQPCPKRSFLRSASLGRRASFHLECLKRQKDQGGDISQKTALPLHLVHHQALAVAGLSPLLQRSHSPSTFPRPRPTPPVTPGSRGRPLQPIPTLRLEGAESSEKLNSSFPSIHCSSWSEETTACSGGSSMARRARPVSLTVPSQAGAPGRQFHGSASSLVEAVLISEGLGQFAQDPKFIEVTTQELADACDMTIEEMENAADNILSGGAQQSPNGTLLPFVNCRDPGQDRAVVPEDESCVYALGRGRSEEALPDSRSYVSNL
T1 sequence (P54290 25-944 partner limits assumed, other chains not shown): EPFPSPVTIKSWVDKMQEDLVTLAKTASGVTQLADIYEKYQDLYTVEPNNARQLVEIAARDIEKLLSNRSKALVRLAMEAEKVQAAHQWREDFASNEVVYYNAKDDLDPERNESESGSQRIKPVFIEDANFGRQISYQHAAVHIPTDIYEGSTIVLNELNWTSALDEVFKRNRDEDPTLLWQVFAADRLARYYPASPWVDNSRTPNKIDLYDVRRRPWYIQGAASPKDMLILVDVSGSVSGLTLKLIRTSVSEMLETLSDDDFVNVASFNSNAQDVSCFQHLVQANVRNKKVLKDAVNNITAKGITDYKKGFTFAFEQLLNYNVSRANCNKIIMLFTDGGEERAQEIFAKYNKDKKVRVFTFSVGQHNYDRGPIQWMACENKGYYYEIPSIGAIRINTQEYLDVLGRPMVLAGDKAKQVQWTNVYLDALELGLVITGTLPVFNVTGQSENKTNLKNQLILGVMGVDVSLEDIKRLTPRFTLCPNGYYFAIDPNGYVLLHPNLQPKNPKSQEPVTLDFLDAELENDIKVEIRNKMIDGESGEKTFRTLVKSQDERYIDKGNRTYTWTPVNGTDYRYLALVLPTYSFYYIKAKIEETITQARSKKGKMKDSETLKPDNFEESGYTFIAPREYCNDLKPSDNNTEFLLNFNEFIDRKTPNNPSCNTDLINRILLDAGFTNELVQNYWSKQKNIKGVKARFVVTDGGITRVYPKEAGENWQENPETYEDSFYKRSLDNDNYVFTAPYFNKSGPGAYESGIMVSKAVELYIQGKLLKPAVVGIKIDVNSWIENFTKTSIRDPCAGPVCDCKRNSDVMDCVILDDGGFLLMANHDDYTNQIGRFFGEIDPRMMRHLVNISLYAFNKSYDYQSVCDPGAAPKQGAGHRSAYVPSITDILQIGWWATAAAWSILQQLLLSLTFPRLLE
T1 sequence (P54290 945-1091 partner limits assumed, other chains not shown): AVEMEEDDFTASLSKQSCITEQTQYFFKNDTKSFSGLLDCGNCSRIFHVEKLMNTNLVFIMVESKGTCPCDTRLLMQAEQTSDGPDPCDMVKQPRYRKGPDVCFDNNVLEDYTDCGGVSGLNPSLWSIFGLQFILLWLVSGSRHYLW
Method: [^3 H]-Nitrendipine binding assay was carried out according to the method described by G. T. Bolger, et al., Biochem. Biophys. Res. Comm. 104, 1604-1609 (1982). The reaction mixture contained rat cardiac microsomes (source of Ca^2+ channels), 0.5 nM [^3 H]-nitrendipinewith or without potential displacer in Tris buffer. The mixture was incubated for 60 minutes at 25° and subsequently terminated by rapid filtration through a glass fiber-filter. Membrane-bound [^3 H]-nitrendipine trapped in the filter was quantitated by scintillation counting. The inhibitory concentration (IC50) of potential displacer which gives 50% displacement of the total specifically bound [^3 H]-nitrendipine is presented as a measure of the affinity of such compound for the Ca^2+ channel.

[3] = target: alpha1-adrenoceptor (rat brain membranes); assay: [3H]-Prazosin binding assay (affinity for alpha1-adrenoceptors); settings: 0.2 nM [3H]-prazosin, partially purified rat brain membranes, Tris buffer, 60 minutes at 25°
Method: The [^3 H]-prazosin binding assay was carried out according to the method described by Timmermans, P. B. M. W. M., Schoop, A. M. C., and Van Zwieten, P. A., Biochem. Pharmacol. 31, 899-905 (1982). The reaction mixture contained partially purified rat brain membranes (source of alpha1 -adrenoceptors), 0.2 nM [^3 H]-prazosin with or without potential displacer in Tris buffer. The mixture was incubated for 60 minutes at 25° and subsequently terminated by rapid filtration through glass fiber-filter. Receptor-bound [^3 H]-prazosin trapped in the filter was quantitated by scintillation counting. The inhibitory concentration (IC50) of potential displacer which gives 50% displacement of the total specifically bound [^3 H]-prazosin is presented as a measure of the affinity of such compound for the alpha1 -adrenoceptor.

| SMILES | EC50 (guinea pig left atria) | Emax (guinea pig left atria) | coronary vasoconstricting properties [1] | effect on calcium influx, inotropic and vasoconstrictor effects [1] | potency as a calcium agonist relative to CGP 28392 [1] | IC50 [2] | IC50 [3] |
| --- | --- | --- | --- | --- | --- | --- | --- |
| COC(=O)C1=C(C)NC(C)=C([N+](=O)[O-])C1c1ccccc1C(F)(F)F (stereo not shown) [Bay K8644] | 150 nM | 100% | coronary vasoconstricting properties | promote an influx of calcium ions into cells, thereby producing positive inotropic and vasoconstrictor effects | more than ten times as potent as CGP 28392 |  |  |
| CCOC(=O)C1=C(C)NC2=C(C(=O)OC2)C1c1ccccc1OC(F)F (stereo not shown) [CGP 28392] |  |  |  | promote an influx of calcium ions into cells, thereby producing positive inotropic and vasoconstrictor effects |  |  |  |
| COC(=O)C1=C(N)NC(C)=C([N+](=O)[O-])C1c1ccccc1SCCCCN1CCN(c2ccccc2OC)CC1 (stereo not shown) [Example 1, 2-Amino-1,4-dihydro-4-(2-{4-[4-(2-methoxyphenyl)-1-piperazinyl]-butylthio}phenyl)-6-methyl-5-nitro-3-pyridinecarboxylic acid methyl ester] | 550 nM | 166% |  |  |  | 520 nM | 60 nM |
| COC(=O)C1=C(N)NC(C)=C([N+](=O)[O-])C1c1ccccc1[S+]([O-])CCCCN1CCN(c2ccccc2OC)CC1 (stereo not shown) [Example 2, 2-Amino-1,4-dihydro-4-(2-{4-[4-(2-methoxyphenyl)-1-piperazinyl]-butylsulfinyl}phenyl)-6-methyl-5-nitro-3-pyridinecarboxylic acid methyl ester] | 5700 nM | 90% |  |  |  | 1700 nM | 11 nM |
| COC(=O)C1=C(N)NC(C)=C([N+](=O)[O-])C1c1ccccc1OCCCCCN1CCN(c2ncccn2)CC1 (stereo not shown) [Example 3, 2-Amino-1,4-dihydro-4-(2-{5-[4-(2-pyrimidinyl)-1-piperazinyl]-pentyloxy}phenyl)-6-methyl-5-nitro-3-pyridinecarboxylic acid methyl ester] | 1000 nM | 170% |  |  |  | 930 nM | 160 nM |
| COC(=O)C1=C(N)NC(C)=C([N+](=O)[O-])C1c1ccccc1OCCCCCN1CCN(c2ccccc2OC)CC1 (stereo not shown) [Example 4, 2-Amino-1,4-dihydro-4-(2-{5-[4-(2-methoxyphenyl)-1-piperazinyl]-pentyloxy}phenyl)-6-methyl-5-nitro-3-pyridinecarboxylic acid methyl ester] | 1600 nM | 128% |  |  |  | 1600 nM | 3400 nM |
| COC(=O)C1=C(N)NC(C)=C([N+](=O)[O-])C1c1ccccc1S(=O)(=O)CCCCN1CCN(c2ccccc2OC)CC1 (stereo not shown) [Example 5, 2-Amino-1,4-dihydro-4-(2-{4-[4-(2-methoxyphenyl)-1-piperazinyl]-butylsulfonyl}phenyl)-6-methyl-5-nitro-3-pyridinecarboxylic acid methyl ester] | 1500 nM | 119% |  |  |  | 390 nM | 60 nM |
| COC(=O)C1=C(N)NC(C)=C([N+](=O)[O-])C1c1ccccc1SCCCCN1CCN(c2ncccn2)CC1 (stereo not shown) [Example 6] | 47 nM | 113% |  |  |  | 400 nM | 4500 nM |
| COC(=O)C1=C(N)NC(C)=C([N+](=O)[O-])C1c1ccccc1SCCCCN1CCC(C(=O)c2ccc(F)cc2)CC1 (stereo not shown) [Example 7] | 9600 nM | 112% |  |  |  | 150 nM | 150 nM |
| COC(=O)C1=C(N)NC(C)=C([N+](=O)[O-])C1c1ccccc1[S+]([O-])CCCCN1CCN(c2ncccn2)CC1 (stereo not shown) [Example 8, 2-Amino-1,4-dihydro-4-(2-{4-[4-(2-pyrimidinyl)-1-piperazinyl]-butylsulfinyl}phenyl)-6-methyl-5-nitro-3-pyridinecarboxylic acid methyl ester] | 500 nM | 254% |  |  |  | 2300 nM | 2400 nM |
| COC(=O)C1=C(N)NC(C)=C([N+](=O)[O-])C1c1ccccc1[S+]([O-])CCCCN1CCC(C(=O)c2ccc(F)cc2)CC1 (stereo not shown) [Example 9] | 10000 nM | 56% |  |  |  | 2400 nM | 150 nM |
| COC(=O)C1=C(N)NC(C)=C([N+](=O)[O-])C1c1ccccc1SCCCN1CCN(c2ccccc2OC)CC1 (stereo not shown) [Example 10] | 3500 nM | 115% |  |  |  | 300 nM | 80 nM |
| COC(=O)C1=C(N)NC(C)=C([N+](=O)[O-])C1c1ccccc1SCCCCCN1CCN(c2ccccc2OC)CC1 (stereo not shown) [Example 11] | 2400 nM | 112% |  |  |  | 240 nM | 42 nM |
| COC(=O)C1=C(N)NC(C)=C([N+](=O)[O-])C1c1ccccc1[S+]([O-])CCCN1CCN(c2ccccc2OC)CC1 (stereo not shown) [Example 12] | > 100000 nM | 35% |  |  |  | 620 nM | 52 nM |
| COC(=O)C1=C(N)NC(C)=C([N+](=O)[O-])C1c1ccccc1[S+]([O-])CCCCCN1CCN(c2ccccc2OC)CC1 (stereo not shown) [Example 13] | 5200 nM | 119% |  |  |  | 1300 nM | 25 nM |

From patent US5314887A, “2-amino-1, 4-dihydropyridine derivatives with calcium agonist and alpha -antagonist activity” (The Du Pont Merck Pharmaceutical Company, priority 1992, dated 1994)
